The test system of one data set is C57BL/6 mice. Put plainly: FeCl3-induced mouse carotid artery thrombosis model. In kind it is in vivo. The conditions noted are these: for effect on occlusive thrombus formation: 7.5% FeCl3.
Data set [1] relates to mice. Put plainly: Mouse tail bleeding time test. Conditions: cangrelor 30 μg/kg; for effect on mouse tail bleeding time: Fig. 5, M3mP6 HLPN 5 or 10 μmol/kg, high dose aspirin 36 mg/kg i.p., clopidogrel 4 mg/kg, ticagrelor 3 mg/kg.
For data set [2] the following is noted: lipid micellar formulation; cited from earlier work.
Data set [3] concerns mice. Put plainly: Laser-induced cremaster arteriolar thrombosis model in mice. In kind it is in vivo, mouse. The conditions noted are these: pre-injected intravenously; M3mP6 HLPN 10 μmol/kg, cangrelor 30 μg/kg; 27 injury sites each.
For data set [4] the following is noted: no reference given; cited from earlier work.

Values joined by “and” are separate entries in the source; they are usually repeats but may differ in a detail not shown here. Equal values may be shown once. Where no end group is shown, it is not given here. The star is where a group is joined. Myristoyl = CCCCCCCCCCCCCC(=O)*

Regarding `CC(=O)Oc1ccccc1C(=O)O` [aspirin], the “effect on occlusive thrombus formation” value in the data set on C57BL/6 mice (Fig. 4B, M3mP6 HLPN 5 μmol/kg, aspirin 36 mg/kg i.p. 1 hour before) is on record as “no obvious effect”. Besides, the “effect on mouse tail bleeding time” value with mice [1] is recorded as “increased tail bleeding time”.
For the compound `COC(=O)[C@H](c1ccccc1Cl)N1CCc2sccc2C1` [clopidogrel], in the data set on C57BL/6 mice (Fig. 4C, M3mP6 HLPN 10 μmol/kg, clopidogrel 4 mg/kg oral 2 hours before, ticagrelor 3 mg/kg oral 2 hours before), the “effect on occlusive thrombus formation” value was “delayed occlusive thrombus formation following FeCl3-induced injury but was less effective than M3mP6 HLPN”.
As for Myristoyl-FEEERA [mP6], in data set [2], the “peptide concentration achieved in lipid micellar suspension” value is 1 mM and < 1 mM.
Turning to `CSCCNc1nc(SCCC(F)(F)F)nc2c1ncn2[C@@H]1O[C@H](COP(=O)(O)OP(=O)(O)C(Cl)(Cl)P(=O)(O)O)[C@@H](O)[C@H]1O` [cangrelor], the “overall effect on occlusive thrombosis” value with C57BL/6 mice (Fig. 4E, cangrelor 30 μg/kg retro-orbital, M3mP6 HLPN 10 μmol/kg) was “moderately better than M3mP6 HLPN”. The “effect on platelet thrombus formation” value in the data set with mice [3] is “potently inhibiting platelet thrombus formation”. Besides, the plasma half-life in data set [4] was 3 to 6 min. Moreover, the “effect on mouse tail bleeding time” value in the data set on mice [1] is recorded as “increased tail bleeding time”. Moreover, in the data set on mice [1] (post-injury injection, M3mP6 HLPN 10 μmol/kg), the tail bleeding time result is “prolonged tail bleeding time”.
`CCCSc1nc(N[C@@H]2C[C@H]2c2ccc(F)c(F)c2)c2nnn([C@@H]3C[C@H](OCCO)[C@@H](O)[C@H]3O)c2n1` [ticagrelor]: the “effect on mouse tail bleeding time” value in the data set on mice [1] is reported as “increased tail bleeding time”.

The values are drawn from PMC8061427 (Science translational medicine, 2020).
